Calls of active or inactive are those of the source.
What was measured:
Nonstructural protein 1 = Nonstructural protein 1 (Influenza A virus, UniProt Q194T2); assay type: functional, Influenza A virus (A/California/07/2009(H1N1))
Fatty acid synthase [1] = target: T1, Fatty acid synthase (Homo sapiens, UniProt P49327); assay: inhibition of human FAS-TE enzyme activity – biochemical, kinetic fluorescence intensity, dose response (AID 624326); assay type: functional;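 further: rate of fluorescence rise from hydrolysis of a fluorogenic O-methyl fluorescein ester substrate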
Fatty acid synthase [2] = target: T1, Fatty acid synthase; assay: inhibition of human FAS-TE enzyme activity – biochemical, endpoint fluorescence intensity, uHTS hits, dose response (AID 624327); assay type: functional;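 further: fluorescence from hydrolysis of an O-methyl fluorescein acyl ester substrate by the enzyme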
[3] = target: FAD-linked sulfhydryl oxidase ALR (Homo sapiens, UniProt P55789); assay: ALR-catalysed DTT oxidation blockers – biochemical, H2O2 detection, luminescence, cherry-pick, dose response (AID 493248)
Large T antigen = Large T antigen (Simian virus 40, UniProt P03070); assay type: functional, Betapolyomavirus macacae;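 further: Confirmatory-stage PubChem screen for compounds that inhibit SV40 T antigen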
[4] = off-target signal loss in HeLa-CEM21 co-culture – HeLa F-luc CTL cells, cherry-picked, counter-screen for HIV-1 Env fusion inhibitor project, dose response (AID 652040); assay type: functional, cell-based;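 further: potency for signal decrease marking cytotoxic or nonspecific inhibition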
[5] = blockers of HIV-1 ZM109 envelope-driven cell-cell fusion – HeLa effector, CEM target cells, luciferase, cherry-pick, dose response (AID 652058); assay type: functional, cell-based;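 further: luciferase signal from HIV-1 Env mediated cell-cell fusion of effector and target cells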
[6] = blockers of HIV-1 envelope-mediated cell-cell fusion – cherry-pick, dose response (AID 652057); assay type: functional, cell-based
[7] = target: T2, Heat shock factor protein 1 (Mus musculus, UniProt P38532); assay: enhancement of HSF1-driven luciferase signal – cell-based, NIH3T3, luminescence, dose retest, confirmation (AID 435004); assay type: functional;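 further: stress induced by proteasome inhibitor MG132 added 30 min after compound; luciferase reporter driven by HSF1 response element in NIH3T3 cells; actives raise luminescence as potentiators of the MG132 stress response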
T2 sequence (P38532 whole entry): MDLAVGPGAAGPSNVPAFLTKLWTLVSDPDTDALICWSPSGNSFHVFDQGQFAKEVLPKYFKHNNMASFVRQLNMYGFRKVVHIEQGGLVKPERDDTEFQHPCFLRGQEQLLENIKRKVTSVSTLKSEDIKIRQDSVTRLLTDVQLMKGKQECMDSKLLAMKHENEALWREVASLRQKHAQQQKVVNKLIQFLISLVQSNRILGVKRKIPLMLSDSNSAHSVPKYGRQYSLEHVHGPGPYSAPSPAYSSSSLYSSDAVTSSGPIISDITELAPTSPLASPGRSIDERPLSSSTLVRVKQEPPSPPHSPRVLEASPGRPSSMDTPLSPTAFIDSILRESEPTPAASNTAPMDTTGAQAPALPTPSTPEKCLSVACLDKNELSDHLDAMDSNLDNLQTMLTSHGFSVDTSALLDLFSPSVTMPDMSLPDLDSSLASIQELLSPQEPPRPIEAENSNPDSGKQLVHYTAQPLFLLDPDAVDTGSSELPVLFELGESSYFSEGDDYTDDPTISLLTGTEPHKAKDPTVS

[8] = HIV-1 AD8 envelope cell-cell fusion blockers – cherry-pick, dose response (AID 652062); assay type: functional, cell-based;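 further: luciferase signal from cell-cell fusion driven by HIV-1 clade B AD8 Env; potency is for inhibitors of fusion seen as a drop in luminescence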
[9] = target: T3, Long-chain-fatty-acid--AMP ligase FadD28 (Mycobacterium tuberculosis, UniProt P9WQ59); assay: Fluorescence polarization aasay to screen for inhibitors that compete for the binding of FadD28 to a bisubstrate Measured in Biochemical System Using Plate Reader - 2147-01_Inhibitor_Dose_CherryPick_Activity.; assay type: functional, Mycobacterium tuberculosis H37Rv
T3 sequence (P9WQ59 whole entry): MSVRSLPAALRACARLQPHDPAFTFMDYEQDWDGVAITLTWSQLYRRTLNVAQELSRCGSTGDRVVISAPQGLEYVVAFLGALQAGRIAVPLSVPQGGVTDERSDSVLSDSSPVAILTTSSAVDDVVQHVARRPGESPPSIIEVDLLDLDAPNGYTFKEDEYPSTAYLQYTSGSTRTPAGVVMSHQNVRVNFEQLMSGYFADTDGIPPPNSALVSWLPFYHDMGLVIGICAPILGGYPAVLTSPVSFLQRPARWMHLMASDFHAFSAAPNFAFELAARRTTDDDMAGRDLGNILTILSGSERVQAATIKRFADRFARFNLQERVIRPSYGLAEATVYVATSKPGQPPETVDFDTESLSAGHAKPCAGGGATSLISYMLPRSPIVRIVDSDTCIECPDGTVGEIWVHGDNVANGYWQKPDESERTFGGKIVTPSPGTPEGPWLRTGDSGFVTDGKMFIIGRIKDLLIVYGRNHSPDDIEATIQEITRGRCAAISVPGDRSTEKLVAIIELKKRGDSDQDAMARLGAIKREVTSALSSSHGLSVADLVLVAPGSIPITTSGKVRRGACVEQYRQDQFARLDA

Aminopeptidase N = target: T4, Aminopeptidase N (Plasmodium falciparum FcB1/Columbia, UniProt O96935); assay: malaria alanyl aminopeptidase activity blockers – biochemical, fluorogenic H-Leu-NHMec substrate, 1536-well (AID 1445); set-up: species or system Plasmodium falciparum 3D7, 3D7
T4 sequence (O96935 whole entry): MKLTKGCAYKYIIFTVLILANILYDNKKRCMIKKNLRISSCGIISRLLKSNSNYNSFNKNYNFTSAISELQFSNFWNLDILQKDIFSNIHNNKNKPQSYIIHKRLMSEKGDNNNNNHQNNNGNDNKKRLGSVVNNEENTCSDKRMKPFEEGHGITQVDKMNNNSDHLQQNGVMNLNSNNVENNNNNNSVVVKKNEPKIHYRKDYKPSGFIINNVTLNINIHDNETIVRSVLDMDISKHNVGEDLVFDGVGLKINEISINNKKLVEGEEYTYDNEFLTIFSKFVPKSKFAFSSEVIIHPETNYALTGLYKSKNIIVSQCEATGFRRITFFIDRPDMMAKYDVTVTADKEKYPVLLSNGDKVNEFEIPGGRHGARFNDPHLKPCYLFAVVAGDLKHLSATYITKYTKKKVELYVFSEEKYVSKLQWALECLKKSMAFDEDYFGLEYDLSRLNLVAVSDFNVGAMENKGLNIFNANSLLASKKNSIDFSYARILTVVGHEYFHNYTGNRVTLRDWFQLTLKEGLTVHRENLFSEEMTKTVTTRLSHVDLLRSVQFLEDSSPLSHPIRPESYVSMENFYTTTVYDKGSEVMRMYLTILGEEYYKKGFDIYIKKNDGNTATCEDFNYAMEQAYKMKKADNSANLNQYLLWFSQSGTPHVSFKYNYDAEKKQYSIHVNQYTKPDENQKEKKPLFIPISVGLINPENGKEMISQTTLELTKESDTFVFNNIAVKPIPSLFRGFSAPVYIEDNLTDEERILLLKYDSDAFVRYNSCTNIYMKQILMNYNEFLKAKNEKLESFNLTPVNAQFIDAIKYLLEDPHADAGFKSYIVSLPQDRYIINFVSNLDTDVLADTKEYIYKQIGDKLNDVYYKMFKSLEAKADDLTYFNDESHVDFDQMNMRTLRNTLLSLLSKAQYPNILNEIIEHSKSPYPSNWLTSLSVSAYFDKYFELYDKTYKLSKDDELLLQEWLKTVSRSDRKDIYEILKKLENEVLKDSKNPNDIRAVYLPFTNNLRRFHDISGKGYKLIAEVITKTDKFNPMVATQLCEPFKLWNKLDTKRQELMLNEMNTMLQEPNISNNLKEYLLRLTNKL

SN12K1 = assay: cells; assay type: functional; settings: Homo sapiens
P388/ADR = assay: cells; assay type: functional; settings: Mus musculus
P388 = assay: cells; assay type: functional; settings: Mus musculus
Genome polyprotein = Genome polyprotein (dengue virus type 2, UniProt P29990); assay: flavivirus cap methylation enzyme inhibition – biochemical, confirmation dose response, primary screen (AID 588689); assay type: functional
Sequence of Genome polyprotein (P29990 2492-3391 limits assumed): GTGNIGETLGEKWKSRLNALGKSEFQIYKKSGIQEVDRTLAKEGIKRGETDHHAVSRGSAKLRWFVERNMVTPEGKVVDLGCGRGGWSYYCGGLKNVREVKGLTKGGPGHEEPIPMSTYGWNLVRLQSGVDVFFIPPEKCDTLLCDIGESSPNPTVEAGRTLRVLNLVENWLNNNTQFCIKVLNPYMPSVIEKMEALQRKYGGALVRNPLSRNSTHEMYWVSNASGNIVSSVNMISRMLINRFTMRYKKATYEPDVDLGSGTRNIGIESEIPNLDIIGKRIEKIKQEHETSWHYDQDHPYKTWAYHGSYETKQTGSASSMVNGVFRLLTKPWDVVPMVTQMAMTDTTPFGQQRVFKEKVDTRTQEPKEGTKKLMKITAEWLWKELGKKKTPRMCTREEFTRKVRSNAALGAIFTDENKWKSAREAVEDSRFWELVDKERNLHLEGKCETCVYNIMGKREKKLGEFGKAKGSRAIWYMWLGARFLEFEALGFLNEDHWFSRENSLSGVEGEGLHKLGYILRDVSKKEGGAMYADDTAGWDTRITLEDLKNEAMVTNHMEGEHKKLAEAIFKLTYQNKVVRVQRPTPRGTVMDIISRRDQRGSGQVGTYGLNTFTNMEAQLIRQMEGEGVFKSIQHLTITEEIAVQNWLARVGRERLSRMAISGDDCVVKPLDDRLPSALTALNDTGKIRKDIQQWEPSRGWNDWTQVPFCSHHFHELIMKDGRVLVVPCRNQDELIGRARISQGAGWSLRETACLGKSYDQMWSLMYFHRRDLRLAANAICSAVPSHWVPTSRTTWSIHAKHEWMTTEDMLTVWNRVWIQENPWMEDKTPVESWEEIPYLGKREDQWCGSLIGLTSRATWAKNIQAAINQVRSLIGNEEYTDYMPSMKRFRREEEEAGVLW

Sequence of Large T antigen (P03070 whole entry, the tested form may be a part): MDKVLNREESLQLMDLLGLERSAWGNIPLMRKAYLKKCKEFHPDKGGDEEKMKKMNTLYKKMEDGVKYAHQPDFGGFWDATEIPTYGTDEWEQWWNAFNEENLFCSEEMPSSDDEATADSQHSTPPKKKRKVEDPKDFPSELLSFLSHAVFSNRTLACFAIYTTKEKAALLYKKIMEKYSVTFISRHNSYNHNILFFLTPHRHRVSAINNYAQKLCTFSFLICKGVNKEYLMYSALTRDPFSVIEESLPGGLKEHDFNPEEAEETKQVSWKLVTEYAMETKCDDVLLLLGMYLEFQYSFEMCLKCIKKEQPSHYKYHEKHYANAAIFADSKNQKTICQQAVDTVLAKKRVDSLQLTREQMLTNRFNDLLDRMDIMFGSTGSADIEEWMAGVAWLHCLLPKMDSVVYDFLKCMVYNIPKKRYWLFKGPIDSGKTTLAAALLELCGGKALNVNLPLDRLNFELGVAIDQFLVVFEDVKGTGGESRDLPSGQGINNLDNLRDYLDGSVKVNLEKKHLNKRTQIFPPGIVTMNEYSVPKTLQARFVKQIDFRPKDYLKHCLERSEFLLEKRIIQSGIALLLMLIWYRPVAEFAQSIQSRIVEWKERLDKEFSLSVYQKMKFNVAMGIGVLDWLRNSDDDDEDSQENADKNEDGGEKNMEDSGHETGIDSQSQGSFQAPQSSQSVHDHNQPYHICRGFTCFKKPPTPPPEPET
Sequence of Nonstructural protein 1 (Q194T2 whole entry): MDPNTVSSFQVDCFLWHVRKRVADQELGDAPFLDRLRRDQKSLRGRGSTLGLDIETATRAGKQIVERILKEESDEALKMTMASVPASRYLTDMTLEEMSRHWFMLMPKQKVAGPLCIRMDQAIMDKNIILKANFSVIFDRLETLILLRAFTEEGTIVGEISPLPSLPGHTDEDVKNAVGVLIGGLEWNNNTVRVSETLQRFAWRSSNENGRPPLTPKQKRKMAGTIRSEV
T1 sequence (P49327 whole entry): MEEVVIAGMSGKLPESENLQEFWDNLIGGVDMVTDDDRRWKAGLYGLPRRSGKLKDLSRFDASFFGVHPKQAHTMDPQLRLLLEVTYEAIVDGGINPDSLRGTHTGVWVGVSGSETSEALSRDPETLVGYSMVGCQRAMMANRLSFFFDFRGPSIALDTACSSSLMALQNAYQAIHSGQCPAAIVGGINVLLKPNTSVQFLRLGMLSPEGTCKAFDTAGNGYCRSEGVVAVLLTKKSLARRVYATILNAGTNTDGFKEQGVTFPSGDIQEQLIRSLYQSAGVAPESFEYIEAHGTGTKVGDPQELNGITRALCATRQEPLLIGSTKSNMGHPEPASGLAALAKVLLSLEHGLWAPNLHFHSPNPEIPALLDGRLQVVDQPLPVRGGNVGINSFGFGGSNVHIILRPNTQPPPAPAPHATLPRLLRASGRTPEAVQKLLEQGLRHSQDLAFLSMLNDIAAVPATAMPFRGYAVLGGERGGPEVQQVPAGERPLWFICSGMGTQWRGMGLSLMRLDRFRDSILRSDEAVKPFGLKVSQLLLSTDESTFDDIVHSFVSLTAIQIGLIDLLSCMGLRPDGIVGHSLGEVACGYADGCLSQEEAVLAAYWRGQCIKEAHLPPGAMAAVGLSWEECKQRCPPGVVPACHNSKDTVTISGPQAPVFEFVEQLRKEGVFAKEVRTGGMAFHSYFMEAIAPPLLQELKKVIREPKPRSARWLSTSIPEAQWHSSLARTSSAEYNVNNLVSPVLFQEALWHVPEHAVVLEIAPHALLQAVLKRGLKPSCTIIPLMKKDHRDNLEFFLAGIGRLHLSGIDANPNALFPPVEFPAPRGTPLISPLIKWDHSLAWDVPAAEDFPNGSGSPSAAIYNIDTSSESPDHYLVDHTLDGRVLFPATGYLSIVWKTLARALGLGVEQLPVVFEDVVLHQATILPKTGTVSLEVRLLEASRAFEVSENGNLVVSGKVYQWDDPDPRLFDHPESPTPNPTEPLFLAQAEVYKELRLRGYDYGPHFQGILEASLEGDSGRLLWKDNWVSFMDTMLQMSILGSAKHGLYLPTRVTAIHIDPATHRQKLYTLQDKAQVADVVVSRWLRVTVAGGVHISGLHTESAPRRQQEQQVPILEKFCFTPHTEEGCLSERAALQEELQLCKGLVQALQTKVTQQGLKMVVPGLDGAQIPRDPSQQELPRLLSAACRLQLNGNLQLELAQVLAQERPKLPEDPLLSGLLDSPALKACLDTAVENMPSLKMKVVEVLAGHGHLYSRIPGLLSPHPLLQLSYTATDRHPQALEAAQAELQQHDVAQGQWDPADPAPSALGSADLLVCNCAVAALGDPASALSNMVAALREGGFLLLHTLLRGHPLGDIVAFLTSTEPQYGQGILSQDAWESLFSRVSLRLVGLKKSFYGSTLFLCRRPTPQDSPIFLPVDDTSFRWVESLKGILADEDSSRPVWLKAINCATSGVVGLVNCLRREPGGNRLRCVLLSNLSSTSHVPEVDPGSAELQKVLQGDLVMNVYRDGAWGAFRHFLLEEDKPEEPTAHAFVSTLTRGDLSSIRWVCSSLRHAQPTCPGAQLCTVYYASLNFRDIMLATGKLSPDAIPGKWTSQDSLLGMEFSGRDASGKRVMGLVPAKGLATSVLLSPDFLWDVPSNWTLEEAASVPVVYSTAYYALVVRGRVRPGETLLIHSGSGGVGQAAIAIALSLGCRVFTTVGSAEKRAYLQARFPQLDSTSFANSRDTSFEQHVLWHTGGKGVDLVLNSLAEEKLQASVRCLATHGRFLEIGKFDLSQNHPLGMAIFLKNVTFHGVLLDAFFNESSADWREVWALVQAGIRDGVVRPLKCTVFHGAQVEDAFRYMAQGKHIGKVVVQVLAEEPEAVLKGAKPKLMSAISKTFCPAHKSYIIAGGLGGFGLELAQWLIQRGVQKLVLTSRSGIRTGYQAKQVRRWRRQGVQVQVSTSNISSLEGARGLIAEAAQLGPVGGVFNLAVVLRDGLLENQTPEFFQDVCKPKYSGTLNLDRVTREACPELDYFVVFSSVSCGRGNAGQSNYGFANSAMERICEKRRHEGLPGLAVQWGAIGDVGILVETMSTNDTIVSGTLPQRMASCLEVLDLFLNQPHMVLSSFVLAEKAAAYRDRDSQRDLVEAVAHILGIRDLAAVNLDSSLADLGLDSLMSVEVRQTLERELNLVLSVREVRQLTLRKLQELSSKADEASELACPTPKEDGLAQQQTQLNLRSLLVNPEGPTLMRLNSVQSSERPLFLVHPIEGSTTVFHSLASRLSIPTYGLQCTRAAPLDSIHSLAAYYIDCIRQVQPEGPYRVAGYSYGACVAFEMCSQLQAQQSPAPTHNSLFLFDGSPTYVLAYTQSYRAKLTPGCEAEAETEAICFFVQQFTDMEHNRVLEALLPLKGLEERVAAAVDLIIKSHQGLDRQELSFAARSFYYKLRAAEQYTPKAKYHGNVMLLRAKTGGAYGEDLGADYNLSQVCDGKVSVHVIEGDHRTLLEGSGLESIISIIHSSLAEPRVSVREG
Sequence of FAD-linked sulfhydryl oxidase ALR (P55789 whole entry): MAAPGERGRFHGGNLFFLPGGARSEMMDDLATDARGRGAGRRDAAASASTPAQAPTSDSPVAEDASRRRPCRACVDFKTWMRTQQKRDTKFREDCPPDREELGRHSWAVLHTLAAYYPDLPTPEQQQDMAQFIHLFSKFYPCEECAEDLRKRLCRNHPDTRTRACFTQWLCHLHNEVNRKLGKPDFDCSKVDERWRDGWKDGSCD

## COc1ccc(C)cc1NC(=O)CSc1ccc(-c2ccccn2)nn1
Nonstructural protein 1
  IC50: 9.77 µM (active)

## COc1cccc(NC(=O)CN2C(=O)CSc3ccc(S(=O)(=O)N4CCCCC4)cc32)c1
Fatty acid synthase [1]
  IC50: 9.58 µM (active)
Fatty acid synthase [2]
  IC50: 8.72 µM (active)

## Cc1ccc(CN2CCSc3ccc(C(=O)NCCCN4CCN(C)CC4)cc32)cc1
[3]
  AC50: 0.195 µM (active)

## CN(C)c1ccc(NC(=O)CSc2nnc(-c3cnccn3)n2C)cc1
Large T antigen
  IC50: 17.8 µM (active)

## Sc1n[nH]c(-c2csc3c2CCCC3)n1
[3]
  AC50: 0.044 µM (active)

## O=c1cccc2n1CC1CC2CN(c2nc(N3CCCCC3)nc(N3CCCCC3)n2)C1 (centres undefined)
[4]
  AC50: 3.76 µM (active)
[5]
  AC50: 1.58 µM (active)
[6]
  AC50: 1.69 µM (active)
[7]
  EC50: > 260 µM (inactive)
[8]
  AC50: 6.73 µM (active)

## COC(=O)c1ccc(N2CCc3ccccc32)c([N+](=O)[O-])c1
Nonstructural protein 1
  IC50: 24 µM (active)

## Cc1ccc(C)c(S(=O)(=O)Nc2ccc(O)cc2)c1
Large T antigen
  IC50: 11.1 µM (active)

## CN(CCCNC(=O)C1CCCN(S(=O)(=O)c2c[nH]cn2)C1)c1ccccc1 (centres undefined)
[3]
  AC50: 0.085 µM (active)

## Cc1nc(C)c(-c2csc(Nc3ccc(F)cc3)n2)s1
[3]
  AC50: 0.185 µM (active)

## CCn1cc(CN2CCC(C(=O)Nc3ccc(Oc4cccnc4)cc3)CC2)c(C)n1
[9]
  AC50: 21.7 µM (active)

## O=C(CC(NCc1ccccn1)C(=O)O)Nc1ccccc1Cl (centres undefined)
Nonstructural protein 1
  IC50: 1.48 µM (active)

## CCN(CC)c1ccc(CN(C(=O)c2cccs2)C2CCS(=O)(=O)C2)cc1 (centres undefined)
[3]
  AC50: 2.65 µM (active)

## C/C(NNC(=O)c1ccccc1O)=C1/C(=O)NC(=O)N(Cc2ccccc2)C1=O
[9]
  AC50: 20.4 µM (active)
Aminopeptidase N
  IC50: 19.2 µM (active)

## CCN(c1ccc(NC(=O)CSc2ccc3c(c2)OCCO3)cc1)C(C)C
[9]
  AC50: 20.3 µM (active)

## O=C1c2ccccc2C(=O)N1CCc1c[nH]c2ccc(O)cc12
Large T antigen
  IC50: 59.7 µM (active)

## Cc1ccc(S(=O)(=O)c2nnn3c2nc(NCCCN2CCCC2=O)c2ccccc23)cc1C
Fatty acid synthase [1]
  IC50: 2.85 µM (active)
Fatty acid synthase [2]
  IC50: 5.19 µM (active)

## COc1cc(/C=C2\SC(=O)N(CC(=O)Nc3cccc(C)c3)C2=O)ccc1OC(C)C(=O)O (centres undefined)
[9]
  AC50: 0.583 µM (active)

## COC(=O)NC1C(C)OC(OC2C/C=C(/C)C3C=CC4C(OC5CC(OC6CCC(OC7CC(O)C(OC8CCC(O)C(C)O8)C(C)O7)C(C)O6)C(OC(C)=O)C(C)O5)C(C)CC(C)C4C3(C)/C(O)=C3/C(=O)OC4(CC(C=O)=CC(O)C4/C=C\2C)C3=O)CC1(C)[N+](=O)[O-] (centres undefined)
SN12K1
  GI50: 0.262 µM (active)
P388/ADR
  GI50: 2.64 µM (inactive)
P388
  GI50: 0.337 µM (active)

## C=CCCCCn1c2ccccc2c2c(C)c3cnccc3c(C)c21
SN12K1
  GI50: 5.97 µM (inactive)
P388/ADR
  GI50: 1.84 µM (inactive)
P388
  GI50: 1.93 µM (inactive)

## C=CC(=O)NC(=N)NC#N
SN12K1
  GI50: > 100 µM (inactive)
P388/ADR
  GI50: 25.8 µM (inactive)
P388
  GI50: 12.8 µM (inactive)

## COc1cc2cc(c1Cl)N(C)C(=O)C[C@H](OC(=O)[C@H](C)N(C)C(C)=O)[C@]1(C)O[C@H]1[C@H](C)[C@@H]1C[C@@](O)(NC(=O)O1)[C@H](OC)/C=C/C=C(/C)C2
SN12K1
  GI50: 0.0262 µM (active)
P388/ADR
  GI50: 0.025 µM (active)
P388
  GI50: 0.025 µM (active)

## C/C=C/c1cc2c(c(=O)o1)C(=O)[C@@H](O)[C@H](C)O2
SN12K1
  GI50: 17.1 µM (inactive)
P388/ADR
  GI50: 2.89 µM (inactive)
P388
  GI50: 2.77 µM (inactive)

## C=CC[N+](CCO)(CCO)CCCCCCCCCCCCCCCCCC
SN12K1
  GI50: 6.08 µM (inactive)
P388/ADR
  GI50: 5.3 µM (inactive)
P388
  GI50: 0.486 µM (active)

## CC(=O)c1cccc2c1OC(C)C(=O)N2Cc1ccc(Cl)cc1 (centres undefined)
Fatty acid synthase [1]
  IC50: 5.63 µM (active)
Fatty acid synthase [2]
  IC50: 9.15 µM (active)

## N#C/C(=N\Nc1ccc([N+](=O)[O-])cc1)C(N)=S
[9]
  AC50: 19.5 µM (active)

## Cn1cc(/C=N/NC(=O)COc2ccccc2[N+](=O)[O-])c2ccccc21
[9]
  AC50: > 100 µM (inactive)

## COC(=O)c1ccc(COc2ccccc2/C=N/Nc2cccc(C(=O)O)c2)cc1
Genome polyprotein
  IC50: 76.2 µM (active)
Aminopeptidase N
  IC50: 47 µM (active)
